Experimental data as given in patent US20050240034A1, “Artemisinin-based peroxide compounds as broad spectrum anti-infective agents” (priority 2002, published 2005).
Converted amounts (≈) assume the structure as drawn. Read-outs that look alike come from different tables or passages of the source.

Experiments:
[1] = system: P. falciparum Sierra Leone D6 clone; test: WHO/TDR in vitro antimalarial screen (uptake of radiolabeled nucleic acid precursor), D6 clone; format: cell-based, Plasmodium falciparum; settings: mefloquine-resistant, chloroquine-sensitive, second value in brackets not explained
Method: (§1) All test compounds are solubilized in DMSO and diluted 400 fold (to rule out a DMSO effect) in culture medium with plasma for a starting concentration of at least 12,500 ng/mL. Drugs are subsequently diluted five fold using the Cetus Pro/Pette system utilizing a range of concentrations from 0.8 ng/mL to 12,500 ng/mL. Fifty percent inhibitory concentrations are reported in ng/mL.
(§2) The D6 African P. falciparum clone is sensitive to chloroquine, pyrimethamine and sulfadoxine but resistant to mefloquine. The W2 Indochina P. falciparum clone is resistant to chloroquine, pyrimethamine and sulfadoxine but sensitive to mefloquine. The K1 P. falciparum is a resistant strain, where NF54 P. falciparum is a sensitive strain.

P. falciparum NF54 = test: WHO/TDR in vitro antimalarial screen, NF54; format: cell-based, Plasmodium falciparum; settings: NF54, chloroquine-sensitive, second value in brackets not explained
Method: as §1, with “[…]. All” for “All”
as §2

[2] = system: P. falciparum W2 (IndoChina); test: antimalarial parasite LDH (pLDH) assay, W2; format: cell-based, Plasmodium falciparum; settings: for IC50: pLDH assay, Table 5, read-out: P. falciparum (W2 Clone) IC50; for P. falciparum (IC50) W2: LDH assay, Table 6; for S. I. (W2): Selectivity Index = IC50 (Vero cells)/IC50 (P. falciparum)
Method: (§3) The Thad Cochran National Center for Natural Products Research (University of Mississippi) in vitro antimalarial screen was conducted using an enzyme assay for detection of P. falciparum (see procedure below). This assay is based on the observation that lactate dehydrogenase (LDH) of P. falciparum is distinguishable from host LDH activity. P. falciparum LDH rapidly uses 3-acetyl pyridine nicotinamide adenine dinucleotide (APAD) as a coenzyme in the biotransformation of […].^38 The same process is carried out in human red blood cells at a very slow rate.
(§4) The “Antimalarial parasite LDH assay” is currently being conducted according the following procedure: prepare a suspension of RBC with a 2% parasitemia and 2% hematocrit in malaria complete medium. Dispense 200 μl aliquots of this suspension into each well of a 96 well microtiter plate. Add 10 μl volumes of the drugs to be tested in duplicate to the appropriate wells. Place the plates into humidified chamber and flush the cultures with a gas mixture consisting of 90% N2, 5% O2, and 5% CO2. Transfer the chamber containing the plates to an incubator, and incubate for 48 hours at 37° C. After 48 hours add 100 μl aliquots of the Malstat™ reagent to each well of a new 96-well microtiter plate Resuspend the cultures from the assay plate by mixing each well up and down several times. Remove 20 μl from each well of the resuspend culture and add to the plate containing the Malstat™ reagent. Incubate the plates at room temperature for 30 minutes. After 30 minutes, add to each well 20 μl of the 1:1 mixture of the NBT/PES solution (2 mg/ml and 0.1 mg/ml, respectively). Incubate the plates in the dark for 1 hour. Add 100 μl of 5% acetic acid solution to stop the reaction. The plate is then read at an endpoint of approximately 650 nm. The dose response curves are generated using Microsoft Excel.
(§5) Antimalarial activity of the analogues was determined in vitro on chloroquine sensitive (D)6, Sierra Leone) and resistant (W2, IndoChina) strains of Plasmodium falciparum. The 96 well microplate assay is based on evaluation of the effect of the compounds on the growth of asynchronous cultures of P. falciparum, determined by the assay of parasite lactate dehydrogenase (pLDH) activity.^28 The appropriate dilutions of the compounds were prepared in DMSO or RPMI-1640 medium and added to the cultures of P. falciparum (2% hematocrit, 2% parasitemia) set up in clear flat bottomed 96 well plates. The plates were placed into the humidified chamber and flushed with a gas mixture of 90% N2, 5% CO2 & 5% O2. The cultures were incubated at 37° C. for 48 hours. Growth of the parasite in each well was determined by pLDH assay using Malstat® reagent. The medium and RBC controls were also set-up in each plate.

P. berghei N = test: in vivo Peter's 4-day antimalarial test in mice, P. berghei N; design: P. berghei N P.O. ED50 / P. berghei N P.O. ED90: unit not given beside the values; settings: mice, 4-day test; for P. berghei N P.O. ED50 / P. berghei N P.O. ED90 / P. berghei N S.C. ED50 / P. berghei N S.C. ED90: unit not given; for ED50: Plasmodium berghei, 96 h, unit inferred
Method: (§6) The parasitemia is determined on the day following the last treatment—day 4 to determine qualitatively the presence and degree of activity at the screening dose.

P. falciparum K1 = test: WHO/TDR in vitro antimalarial screen, K1; format: cell-based, Plasmodium falciparum; settings: K1, chloroquine-resistant
Method: as §1, with “[…]. All” for “All”
as §2

[3] = system: P. falciparum Indochina W2 clone; test: WHO/TDR in vitro antimalarial screen, W2 clone; format: cell-based, Plasmodium falciparum; settings: chloroquine-resistant, mefloquine-sensitive, second value in brackets not explained
Method: as §1, §2

[4] = system: P. falciparum D6 (Sierra Leone); test: antimalarial parasite LDH (pLDH) assay, D6; format: cell-based, Plasmodium falciparum; settings: for IC50: pLDH assay, Table 5, read-out: P. falciparum (D6 Clone) IC50; for P. falciparum (IC50) D6: LDH assay, Table 6; for S. I. (D6): Selectivity Index = IC50 (Vero cells)/IC50 (P. falciparum)
Method: as §3, §4
as §5, with “plate. The standard antimalarial agents, chloroquine and artemisinin, were used as the positive controls while DMSO was tested as the negative control.” for “plate.”

P. yoelli ssp. NS = test: in vivo 4-day antimalarial test in mice, P. yoelli ssp. NS; settings: subcutaneous
Method: as §6

[5] = system: Leishmania donovani promastigotes expressing firefly luciferase; test: antileishmanial luciferase assay on transgenic promastigotes; format: cell-based; settings: Table 1 (artemisinin analogues); NA = not active up to 125 μg/ml; read-out: Antileishmanial activity IC50
Method: Antileishmanial activity of the compounds was tested on a transgenic cell line of Leishmania donovani promastigotes expressing firefly luciferase.^29a In a 96 well microplate assay, compounds with appropriate dilution were added to the leishmania promastigotes culture (2×10^6 cell/mL). The plates were incubated at 26° C. for 72 hours and growth of leishmania promastigotes was determined by luciferase assay with Steady Glo® reagent (Promega, USA). Pentamidine and Amphotericin B were used as standard antileishmanial agents. The analogues were simultaneously tested for cytotoxicity on VERO cells (monkey kidney fibroblast) by Neutral Red assay.^29b IC50 values for the compounds were computed from the growth inhibition curve.

| Compound | P. falciparum (IC50) D6 [1] | P. falciparum (IC50) NF54 (P. falciparum NF54) | P. berghei N P.O. ED50 (P. berghei N; oral) | P. berghei N P.O. ED90 (P. berghei N; oral) | P. berghei N S.C. ED50 (P. berghei N; subcutaneous) | P. berghei N S.C. ED90 (P. berghei N; subcutaneous) | P. falciparum (IC50) K1 (P. falciparum K1) [mg/L] | P. falciparum (IC50) W2 [3] | P. yoelli ssp. NS (S.C.) ED50 (P. yoelli ssp. NS; unit inferred) [mg/kg] | P. falciparum (IC50) W2 [2] [mg/L] | S. I. (W2) ([2]; W2) | P. falciparum (IC50) D6 [4] [mg/L] | S. I. (D6) ([4]; D6) | also measured |
| --- | --- | --- | --- | --- | --- | --- | --- | --- | --- | --- | --- | --- | --- | --- |
| CCN(CC)CCCC(C)Nc1ccnc2cc(Cl)ccc12 (centres unmarked) [Chloroquine, chloroquine, reference compound] | 7.58 ng/mL | 7.36 ng/mL | 1.7 | 3.1 | 1.5 | 3 | 0.07901 | 118.04 ng/mL | 1.6 |  |  |  |  | IC50 [2]: 0.233 µM; IC50 [4]: 0.0165 µM; P. yoelli ssp. NS (S.C.) ED90 (P. yoelli ssp. NS; unit inferred): 28 mg/kg |
| CC1CCC2C(CCCc3ccc(Cl)cc3)COC3OC4(C)CCC1C32OO4 (centres unmarked) [Compound 11] | 1.9 (1.9) ng/mL |  | 1.0 | 2.1 | 0.7 | 1.2 |  | 3.0 (2.2) ng/mL | 0.6 |  |  |  |  | P. yoelli ssp. NS (S.C.) ED90 (P. yoelli ssp. NS; unit inferred): 1 mg/kg |
| OC(c1cc(C(F)(F)F)nc2c(C(F)(F)F)cccc12)C1CCCCN1 (centres unmarked) [Mefloquine, mefloquine, reference compound] |  |  |  | 2.3 |  | 3.8 |  |  |  |  |  |  |  | IC50 ([1]; Plasmodium falciparum): 0.0456 mg/L (≈ 0.12 µM); IC50 (P. falciparum NF54; Plasmodium falciparum): 0.0354 mg/L (≈ 0.0935 µM); IC50 ([2]; Plasmodium falciparum, W2): 0.195 µM; ED50 (P. berghei N; oral, read-out: P. berghei N P.O. ED50): 1.1 mg/kg; ED50 (P. berghei N; sc, subcutaneous, read-out: P. berghei N S.C. ED50): 1.5 mg/kg; IC50 (P. falciparum K1; Plasmodium falciparum): 0.0203 mg/L (≈ 0.0538 µM); IC50 ([3]; Plasmodium falciparum): 0.0341 mg/L (≈ 0.09 µM); IC50 ([4]; Plasmodium falciparum, D6): 0.17 µM; ED50 (P. yoelli ssp. NS; Plasmodium yoelii, sc, unit inferred, read-out: P. yoelli ssp. NS (S.C.) ED50): 2.3 mg/kg |
| (+)-Octahydro3,6α-dimethyl-3,12-epoxy-9β-(3′-(3,5-difluorophenyl)propyl)-12H-pyrano[4,3j]-1,2-benzodioxepin [Compound 41] |  |  | <10 | <10 | <10 | <10 |  | 6.70 ng/mL |  | 0.0023 | >207 | 0.0038 | >125 |  |
| (+)-Octahydro-3,6α-dimethyl-3,12-epoxy-9β-(3′-(3,5-bistrifluoromethylphenyl)propyl)-12H-pyrano[4,3j]-1,2-benzodioxepin [Compound 40] |  |  | <10 | <10 | <10 | <10 |  | 7.11 ng/mL |  | 0.0095 | >50 | 0.012 | >40 |  |
| (+)-Octahydro-3,6α-dimethyl-3,12-epoxy-9β-(3′-(m-fluorophenyl)propyl)-12H-pyrano[4,3j]-1,2-benzodioxepin [Compound 37] | 8.28 ng/mL | 41.76 (27.33) ng/mL | 0.9 (0.38-1.9) | 3.4 (1.45-7.5) | 0.46 (0.19-1.1) | 0.85 (0.36-2.3) | 0.01156 | 26.83 ng/mL |  | 0.012 | >40 | 0.011 | >43.0 | IC50 [5]: 88.3 µM; P. yoelli ssp. NS (S.C.) ED50 (P. yoelli ssp. NS; unit not given): 0.58 (0.45-1.0); P. yoelli ssp. NS (S.C.) ED90 (P. yoelli ssp. NS; unit not given): 1.00 (0.8-1.8) |
| quinine [reference compound] |  | 9.08 ng/mL | 71 | 118 | 25 | 190 | 0.0996 |  | 128 |  |  |  |  |  |
